Source: patent US20220079912A1, “ANTICANCER FORMULATION” (University of Mississippi, priority 2018, published 2022)

Experiments:
B16 cells = experiment: Lactic acid export (intracellular lactic acid levels); assay type: cell-based, mouse; conditions: FIG. 4
Protocol: To prevent the buildup of lactic acid within the cell a family of monocarboxylate transporters (MCT) functions to transport lactic acid out of the cell (10). To determine if GH inhibits lactic acid export from the cell, and in this manner inhibits the accumulation of lactic acid in the cell culture medium, intracellular lactic acid levels were measured. If GH inhibited lactic acid export, treatment of cells with GH would result in the increase in intracellular lactic acid levels. As a positive control the MCT1 inhibitor AZD3965 was used.

T98G glioblastoma cells = experiment: Colony formation assay, combination with DHEA; assay type: cell-based, human; conditions: 12 h (other inhibitors 24 h), FIG. 19
Protocol: GH, a glycolysis inhibitor, is cytotoxic to human tumor cells when used in combination with a Glucose-6-Phosphate Dehydrogenase inhibitor, dehydroepiandrosterone, (DHEA). To compensate for high ROS levels, cancer cells increase glycolysis and pentose phosphate cycle to provide reducing equivalents (NADH and NADPH) to neutralize hydro peroxides (15). […] The other glycolysis inhibitors tested in combination with DHEA were ineffective even at 24 h.

KB (HeLa) = experiment: Combination cytotoxicity with phenformin; assay type: cell-based; conditions: data not shown
Colo320DM colon cancer = experiment: Colony formation assay, combination with DHEA; assay type: cell-based, human; conditions: 24 h, FIG. 20
SK-OV3 = experiment: Combination cytotoxicity with phenformin; assay type: cell-based; conditions: SK-OV3, data not shown
T98G cells [1] = experiment: Glucose transport (2-NBDG accumulation); assay type: cell-based, human; conditions: treated for one hour followed by 2-NBDG for one hour
MDA-MB-231 cells = experiment: Glucose transport (2-NBDG accumulation); assay type: cell-based, human; conditions: MDA-MB-231, treated for one hour followed by 2-NBDG for one hour
From the text: Phloretin, a known glucose transport inhibitor, was used as a positive control. Accumulation of 2-NDGB was inhibited by phloretin by 54% in T98G cells, by 31% in B16 cells and by 74% in MDA-MB-231 cells. The first panel for each cell line represents unstained cells, the second stained with 2-NBDG for one hour, the third treated with GH for one hour followed by 2-NBDG for one hour and the fourth treated with phloretin for one hour followed by 2-NBDG for one hour.

T98G cells [2] = experiment: Apoptosis, annexin V/propidium iodide (PI) staining; assay type: cell-based, human; conditions: FIG. 10
From the text: This additional target remains to be identified.

[3] = tested on: BNC3 patient derived Glioblastoma cells; experiment: Colony formation assay, combination with DHEA; assay type: cell-based, human; conditions: BNC3, 24 h, FIG. 20
BT-549 = experiment: Combination cytotoxicity with phenformin; assay type: cell-based; conditions: BT-549, data not shown
[4] = tested on: cancer stem cells (CSCs) grown from BNC6 patient derived Glioblastoma cells; experiment: Cell viability by Trypan Blue exclusion cell count, combination with DHEA; assay type: cell-based, human; conditions: 24 h, FIGS. 22A-B
U87MG Glioma cells = experiment: Colony formation assay, combination with DHEA; assay type: cell-based, human; conditions: 24 h, FIG. 20

SMILES: Oc1ccc(/C=C/c2c3c(cc4c2[C@H](c2cc(O)cc(O)c2)[C@@H](c2ccc(O)cc2)O4)O[C@H](c2ccc(O)cc2)[C@H]3c2cc(O)cc(O)c2)cc1 (relative stereo) [GH, trans-Gnetin H]
- effect on intracellular lactic acid (B16 cells): did not increase intracellular lactic acid
- cytotoxicity in combination with DHEA (cell staining) (T98G glioblastoma cells): rapidly cytotoxic
- synergistic cytotoxicity with phenformin (KB (HeLa)): synergistically cytotoxic
- cytotoxicity in combination with DHEA (cell staining) (Colo320DM colon cancer): cytotoxic
- synergistic cytotoxicity with phenformin (SK-OV3): synergistically cytotoxic
- effect on accumulation of 2-NBDG (glucose transport) (T98G cells [1]): did not influence the accumulation
- effect on accumulation of 2-NBDG (glucose transport) (MDA-MB-231 cells): did not influence the accumulation
- induction of apoptosis in combination with Paw Paw extract (PP) (T98G cells [2]): extensive induction of apoptosis
- induction of apoptosis in combination with phenformin (Ph) (T98G cells [2]): extensive induction of apoptosis
- cytotoxicity in combination with DHEA (cell staining) [3]: cytotoxic
- synergistic cytotoxicity with phenformin (BT-549): synergistically cytotoxic
- cytotoxicity in combination with DHEA (percentage of cell viability) [4]: cytotoxic
- cytotoxicity in combination with DHEA (cell staining) (U87MG Glioma cells): cytotoxic
